Tested on: U937 leukemia cells
Assay: Cell death mechanism (DNA laddering, immunoblotting, electron microscopy)
Type: cell-based
Description: (A) Trypan blue staining of U937 leukemia cells showing percentage of dead cells (trypan blue positive) over time. (B) U937 cells were untreated (Un) or treated with 1 μM AS1411 (1411) or control oligonucleotide (Ctrl) for 72 h. DNA was extracted, electrophoresed on an agarose gel and stained with ethidium bromide to probe DNA laddering. As a positive control, […] were treated with UV irradiation to induce apoptosis as previously described. […] (D) U937 cells treated as described for panel B, followed by protein extraction and immunoblotting (IB) to detect PARP cleavage and Caspase-3 activation. (E) DU145 prostate cancer cells were incubated with 10 μM of AS1411 for 24 h, or irradiated with UV (300 J/m^2 with UV Stratalinker 2400, Strategene), then cultured in fresh medium for 6 h. Assessment of cell death was carried out by flow cytometry to detect Annexin V-FITC binding and PI staining.

## 5′-d(GGTGGTGGTGGTTGTGGTGGTGGTGG) [AS1411]
  effect on DNA replication and cell division: inhibited DNA replication and cell division
  effect on protein synthesis: not inhibited
1 μM, 72 h, UV irradiation as positive control
  induction of apoptosis markers: does not induce DNA laddering, PARP cleavage, or Caspase-3 activation
72 h
  cell death morphology in electron micrographs: necrosis-like cell death

From patent publication US20130065227A1, “METHODS OF INCREASING MACROPINOCYTOSIS IN CANCER CELLS” (priority 2010, published 2013)
